Measurements from patent US20090203908A1, “Activator for Peroxisome Proliferator-Activated Receptor” (NIPPON CHEMIPHAR CO., LTD., priority 2005, published 2009).
Where two headings read alike, the source gives them in different places.

Assays:
hPPAR α (LBD) = target: T1, hPPAR α (LBD) (Homo sapiens, UniProt Q07869); assay: PPAR activating effect, GAL4-hPPARα (LBD) luciferase reporter in CV-1 cells
T1 sequence (Q07869 239-466 limits assumed): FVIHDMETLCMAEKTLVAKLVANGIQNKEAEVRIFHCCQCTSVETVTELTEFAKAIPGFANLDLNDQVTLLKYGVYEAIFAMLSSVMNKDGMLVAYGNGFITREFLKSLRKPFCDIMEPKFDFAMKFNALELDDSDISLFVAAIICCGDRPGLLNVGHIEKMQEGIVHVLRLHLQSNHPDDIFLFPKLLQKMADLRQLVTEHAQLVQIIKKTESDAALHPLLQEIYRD
Description: (§1) For determining PPAR activating effects of the compounds according to the invention were measured by the following method:
(§2) After gene transfer utilizing a lipofection reagent DMRIE-C or Lipofectamin 2000 (Invitrogen), it is incubated for 42 hours in the presence of the test compound. Then, the luciferase activity and β-GAL activity are measured on the soluble cells. The luciferase activity is calibrated by the β-GAL activity.
(§3) The PPAR activating effects of test compounds (compounds of Examples) were measured by the following method:
(§4) After gene transfer utilizing a lipofection reagent DMRIE-C or Lipofectamin 2000 (Invitrogen), it is incubated for approx. 40 hours in the presence of the test compound. Then, the luciferase activity and β-GAL activity are measured on the soluble cells. The luciferase activity is calibrated by the β-GAL activity. […] Then, EC50 was obtained.

hPPAR γ (LBD) = target: T2, hPPAR γ (LBD) (Homo sapiens, UniProt P37231); assay: PPAR activating effect, GAL4-hPPARγ (LBD) luciferase reporter in CV-1 cells
T2 sequence (P37231 238-503 limits assumed): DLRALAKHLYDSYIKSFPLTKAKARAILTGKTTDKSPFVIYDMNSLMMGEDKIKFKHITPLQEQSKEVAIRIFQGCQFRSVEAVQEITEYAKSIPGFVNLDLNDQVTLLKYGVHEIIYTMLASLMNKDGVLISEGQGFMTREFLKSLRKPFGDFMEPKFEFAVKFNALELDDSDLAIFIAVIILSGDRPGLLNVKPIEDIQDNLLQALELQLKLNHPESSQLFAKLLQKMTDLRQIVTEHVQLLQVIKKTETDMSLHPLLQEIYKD
Description: as §1, §2, §3, §4

hPPAR δ (LBD) = target: T3, hPPAR δ (LBD) (Homo sapiens, UniProt Q03181); assay: PPAR activating effect, GAL4-hPPARδ (LBD) luciferase reporter in CV-1 cells
T3 sequence (Q03181 211-439 limits assumed): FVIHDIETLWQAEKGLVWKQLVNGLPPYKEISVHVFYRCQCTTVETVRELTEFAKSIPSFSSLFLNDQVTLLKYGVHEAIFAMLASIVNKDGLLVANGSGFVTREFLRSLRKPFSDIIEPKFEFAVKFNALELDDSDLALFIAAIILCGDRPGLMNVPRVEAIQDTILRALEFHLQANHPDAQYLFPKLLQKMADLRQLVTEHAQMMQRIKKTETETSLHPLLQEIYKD
Description: as §1, §2, §3, §4

hPPAR α or γ or δ (LBD) = assay: PPAR activating effect, overall assessment over the subtypes (GAL4-hPPAR luciferase reporter in CV-1 cells); conditions: summary of Table 17, PPARα and PPARγ
Description: as §1, §2, §3, §4

Q: With `COc1ccc(N2CCN(Cc3nc(-c4ccc(C(F)(F)F)cc4)sc3CCC(=O)c3ccc(OC(C)(C)C(=O)O)c(C)c3)CC2)cc1` [Example 3, 2-[4-[3-[4-[4-(4-Methoxyphenyl)piperazin-1-yl-methyl]-2-(4-trifluoromethylphenyl)-5-thiazolyl]propionyl]-2-methylphenoxy]-2-methylpropionic Acid] as the compound, how does the EC50 (hPPAR α (LBD)) read?
A: > 10000 nM

Q: And the EC50 (hPPAR γ (LBD))?
A: 660 nM

Q: And the EC50 (hPPAR δ (LBD))?
A: 920 nM

Q: What does the source list for `COc1cccc(N2CCN(Cc3nc(-c4ccc(C(F)(F)F)cc4)sc3CCC(=O)c3ccc(OC(C)(C)C(=O)O)c(C)c3)CC2)c1` [Example 4, 2-[4-[3-[4-[4-(3-Methoxyphenyl)piperazin-1-yl-methyl]-2-(4-trifluoromethylphenyl)-5-thiazolyl]propionyl]-2-methylphenoxy]-2-methylpropionic Acid]?
A: EC50 (hPPAR α (LBD)): 210 nM; EC50 (hPPAR γ (LBD)): 1300 nM; EC50 (hPPAR δ (LBD)): 4400 nM

Q: What does the source list for `Cc1cc(C(=O)CCc2sc(-c3ccc(C(F)(F)F)cc3)nc2CN2CCN(c3ccc(C(F)(F)F)cc3)CC2)ccc1OC(C)(C)C(=O)O` [Example 5, 2-[4-[3-[4-[4-(4-Trifluoromethylphenyl)-piperazin-1-ylmethyl]-2-(4-trifluoromethylphenyl)-5-thiazolyl]propionyl]-2-methylphenoxy]-2-methylpropionic Acid]?
A: EC50 (hPPAR α (LBD)): 90 nM; PPARα agonist effect (in words) (hPPAR α (LBD); summary of Table 17): strong and selective PPARα agonist effect; EC50 (hPPAR γ (LBD)): 3200 nM; EC50 (hPPAR δ (LBD)): 5200 nM

Q: Which EC50 (hPPAR α (LBD)) does the source give for `Cc1ccc(N2CCN(Cc3nc(-c4ccc(C(F)(F)F)cc4)sc3CCC(=O)c3ccc(OC(C)(C)C(=O)O)c(C)c3)CC2)cc1` [Example 6, 2-[4-[3-[4-[4-(4-Methylphenyl)piperazin-1-yl-methyl]-2-(4-trifluoromethylphenyl)-5-thiazolyl]propionyl]-2-methylphenoxy]-2-methylpropionic Acid] here?
A: 550 nM

Q: And the EC50 (hPPAR γ (LBD))?
A: 490 nM

Q: What about the EC50 (hPPAR δ (LBD)) of the same compound?
A: 4900 nM

Q: `Cc1cc(C(=O)CCc2sc(-c3ccc(C(F)(F)F)cc3)nc2CN2CCN(c3ccc(C(C)C)cc3)CC2)ccc1OC(C)(C)C(=O)O` [Example 11, 2-[4-[3-[4-[4-(4-Isopropylphenyl)piperazin-1-ylmethyl]-2-(4-trifluoromethylphenyl)-5-thiazolyl]propionyl]-2-methylphenoxy]-2-methylpropionic Acid] was tested. Which EC50 (hPPAR α (LBD)) did it give?
A: 92 nM

Q: And the EC50 (hPPAR γ (LBD))?
A: 300 nM

Q: And the EC50 (hPPAR δ (LBD))?
A: 3000 nM

Q: What about the “α/γ dual agonist effects (in words)” value (hPPAR α or γ or δ (LBD)) of the same compound?
A: good α/γ dual agonist effects

Q: Which results are given for `COc1ccc(N2CCN(Cc3nc(-c4ccc(C(F)(F)F)cc4)sc3CCC(=O)c3ccc(OC(C)(C)C(=O)O)c(C)c3)CC2)cc1OC` [Example 12, 2-[4-[3-[4-[4-(3,4-Dimethoxyphenyl)piperazin-1-ylmethyl]-2-(4-trifluoromethylphenyl)-5-thiazolyl]propionyl]-2-methylphenoxy]-2-methylpropionic Acid]?
A: EC50 (hPPAR α (LBD)): 940 nM; EC50 (hPPAR γ (LBD)): 1700 nM; EC50 (hPPAR δ (LBD)): 3800 nM

Q: For `CCOc1ccc(N2CCN(Cc3nc(-c4ccc(C(F)(F)F)cc4)sc3CCC(=O)c3ccc(OC(C)(C)C(=O)O)c(C)c3)CC2)cc1` [Example 13, 2-[4-[3-[4-[4-(4-Ethoxyphenyl)piperazin-1-yl-methyl]-2-(4-trifluoromethylphenyl)-5-thiazolyl]propionyl]-2-methylphenoxy]-2-methylpropionic Acid], which EC50 (hPPAR α (LBD)) is on record?
A: 330 nM

Q: And the EC50 (hPPAR γ (LBD))?
A: 280 nM

Q: What about the EC50 (hPPAR δ (LBD)) of the same compound?
A: 1100 nM

Q: Which results are given for `Cc1cc(C(=O)CCc2sc(-c3ccc(C(F)(F)F)cc3)nc2CN2CCN(c3ccc(OC(F)(F)F)cc3)CC2)ccc1OC(C)(C)C(=O)O` [Example 15, 2-[4-[3-[4-[4-(4-Trifluoromethoxyphenyl)piperazin-1-ylmethyl]-2-(4-trifluoromethylphenyl)-5-thiazol-yl]propionyl]-2-methylphenoxy]-2-methylpropionic Acid]?
A: EC50 (hPPAR α (LBD)): 290 nM; EC50 (hPPAR γ (LBD)): 750 nM; EC50 (hPPAR δ (LBD)): 6300 nM

Q: Which EC50 (hPPAR α (LBD)) does the source give for `Cc1cc(C(=O)CCc2sc(-c3ccc(C(F)(F)F)cc3)nc2CN2CCN(c3ccc(OC(C)C)cc3)CC2)ccc1OC(C)(C)C(=O)O` [Example 16, 2-[4-[3-[4-[4-(4-Isopropyloxyphenyl)piperazin-1-ylmethyl]-2-(4-trifluoromethylphenyl)-5-thiazolyl]propionyl]-2-methylphenoxy]-2-methylpropionic Acid] here?
A: 180 nM

Q: What about the EC50 (hPPAR γ (LBD)) of the same compound?
A: 290 nM

Q: What about the EC50 (hPPAR δ (LBD)) of the same compound?
A: 2300 nM

Q: What about the “α/γ dual agonist effects (in words)” value (hPPAR α or γ or δ (LBD)) of the same compound?
A: good α/γ dual agonist effects

Q: For `COc1ccc(CC2SC(=O)NC2=O)cc1C(=O)NCc1ccc(C(F)(F)F)cc1` (stereo not shown) [KRP-297, reference compound], which EC50 (hPPAR δ (LBD); read-out: PPAR activity: EC50, δ, CV-1 cells, approx. 40 hours incubation, 100% control GW-501516 10^−7 M) is on record?
A: 13900 nM
